# Measurements reported in ChEMBL document CHEMBL6103646 (J Med Chem, 2025).
# Active and inactive are the calls of the source. The calls are words filed in the database; no cut-off is given here.
# Tests used:
# [1] = molecular target: Histone deacetylase 1 (Homo sapiens) (UniProt Q13547); test: Inhibition of HDAC1 in human MM1.S cells assessed as increase in acetylated histone H3 level at 1 uM incubated for 6 hrs by Western blot analysis; assay type: cell-based
# [2] = molecular target: Histone deacetylase 2 (Homo sapiens) (UniProt Q92769); test: Inhibition of HDAC2 in human MM1.S cells assessed as increase in acetylated histone H3 level at 1 uM incubated for 6 hrs by Western blot analysis; assay type: cell-based
# Histone deacetylase 2 (Homo sapiens), sequence (Q92769 whole entry): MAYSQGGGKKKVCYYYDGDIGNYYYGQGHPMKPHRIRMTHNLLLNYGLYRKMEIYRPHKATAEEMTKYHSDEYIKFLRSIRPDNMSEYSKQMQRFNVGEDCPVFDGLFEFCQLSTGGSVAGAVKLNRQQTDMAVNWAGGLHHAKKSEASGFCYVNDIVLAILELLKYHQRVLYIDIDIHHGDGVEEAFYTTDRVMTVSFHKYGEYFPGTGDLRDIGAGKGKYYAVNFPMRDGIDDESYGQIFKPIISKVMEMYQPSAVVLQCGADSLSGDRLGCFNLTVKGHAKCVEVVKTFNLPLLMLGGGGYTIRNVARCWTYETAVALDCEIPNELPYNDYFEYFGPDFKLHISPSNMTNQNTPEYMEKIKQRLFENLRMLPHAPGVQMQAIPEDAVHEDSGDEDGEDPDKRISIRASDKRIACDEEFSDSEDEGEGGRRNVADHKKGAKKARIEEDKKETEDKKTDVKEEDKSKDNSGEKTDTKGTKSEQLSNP
# [3] = Stability of compound in human whole blood assessed as half-life at 1 uM measured upto 40 mins by LC-MS/MS analysis; assay type: ADME, tissue-based
# [4] = molecular target: Protein cereblon/Protein deacetylase HDAC6 (Mus musculus) (UniProt Q9Z2V5+Q8C7D2); test: In vivo PROTAC activity at CRBN/HDAC6 in female C57BL/6J mouse assessed as reduction in HDAC6 protein level in liver at 5 mg/kg, iv measured after 6 hrs by Western blot analysis relative to control; assay type: functional, organism-based; set-up: scale not given: the % may be the effect or the level left
# Protein cereblon/Protein deacetylase HDAC6 (Mus musculus), sequence (Q8C7D2 whole entry, looked up): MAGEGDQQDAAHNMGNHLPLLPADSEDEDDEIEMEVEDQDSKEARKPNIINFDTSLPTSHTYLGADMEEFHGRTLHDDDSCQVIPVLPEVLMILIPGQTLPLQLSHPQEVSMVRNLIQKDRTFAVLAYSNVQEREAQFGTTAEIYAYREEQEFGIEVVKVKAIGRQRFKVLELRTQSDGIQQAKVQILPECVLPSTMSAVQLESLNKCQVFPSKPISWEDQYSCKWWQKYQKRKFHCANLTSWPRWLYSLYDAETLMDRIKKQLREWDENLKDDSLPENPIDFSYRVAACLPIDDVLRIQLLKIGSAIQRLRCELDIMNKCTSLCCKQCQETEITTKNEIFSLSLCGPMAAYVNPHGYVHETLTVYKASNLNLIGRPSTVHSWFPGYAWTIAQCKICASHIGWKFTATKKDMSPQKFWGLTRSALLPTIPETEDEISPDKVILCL
# Protein cereblon/Protein deacetylase HDAC6 (Mus musculus), sequence (Q9Z2V5 whole entry, looked up): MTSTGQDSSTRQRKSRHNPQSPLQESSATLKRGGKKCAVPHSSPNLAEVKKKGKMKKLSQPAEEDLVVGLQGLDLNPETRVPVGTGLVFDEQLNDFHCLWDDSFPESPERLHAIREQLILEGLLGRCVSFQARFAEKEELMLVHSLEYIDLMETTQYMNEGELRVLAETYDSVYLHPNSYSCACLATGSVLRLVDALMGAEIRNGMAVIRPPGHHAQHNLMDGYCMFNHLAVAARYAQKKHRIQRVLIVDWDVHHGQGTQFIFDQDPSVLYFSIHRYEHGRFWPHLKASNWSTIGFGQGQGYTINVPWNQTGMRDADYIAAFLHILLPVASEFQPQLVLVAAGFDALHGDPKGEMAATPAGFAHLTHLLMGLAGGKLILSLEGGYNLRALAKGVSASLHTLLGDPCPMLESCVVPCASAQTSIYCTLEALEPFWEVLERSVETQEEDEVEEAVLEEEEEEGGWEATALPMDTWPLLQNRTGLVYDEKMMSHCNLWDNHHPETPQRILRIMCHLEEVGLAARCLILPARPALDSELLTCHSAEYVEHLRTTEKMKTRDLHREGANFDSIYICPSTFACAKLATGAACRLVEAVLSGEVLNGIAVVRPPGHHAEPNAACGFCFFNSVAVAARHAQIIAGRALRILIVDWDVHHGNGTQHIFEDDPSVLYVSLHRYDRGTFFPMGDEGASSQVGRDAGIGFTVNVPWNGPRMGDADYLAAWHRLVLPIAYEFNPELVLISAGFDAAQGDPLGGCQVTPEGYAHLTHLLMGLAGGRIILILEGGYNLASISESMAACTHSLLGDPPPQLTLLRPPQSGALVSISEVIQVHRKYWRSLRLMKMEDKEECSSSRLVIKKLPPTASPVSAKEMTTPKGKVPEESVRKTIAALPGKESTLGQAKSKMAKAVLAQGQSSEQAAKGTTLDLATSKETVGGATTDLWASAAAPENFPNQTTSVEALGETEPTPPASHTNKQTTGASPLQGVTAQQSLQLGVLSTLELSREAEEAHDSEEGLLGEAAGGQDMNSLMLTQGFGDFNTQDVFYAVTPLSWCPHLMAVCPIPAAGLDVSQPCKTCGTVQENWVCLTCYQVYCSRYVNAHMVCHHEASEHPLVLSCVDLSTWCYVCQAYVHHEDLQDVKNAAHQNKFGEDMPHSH
# [5] = test system: N2a; test: Antiproliferative activity against mouse Neuro2a cells assessed as effect on cell viability by CellTiter-Glo assay; assay type: functional, cell-based
# [6] = test system: MM1.S; test: Antiproliferative activity against human MM1.S cells assessed as reduction in cell viability measured after 72 hrs by CellTiter-Glo assay; assay type: functional, cell-based
# [7] = Selectivity index, ratio of IC50 for inhibition of HDAC8 (unknown origin) to IC50 for inhibition of HDAC6 (unknown origin)
# [8] = molecular target: T1, Histone deacetylase 8 (Homo sapiens, UniProt Q9BY41); test: Inhibition of HDAC8 (unknown origin) using FAM-labeled peptide substrate by […] mobility shift assay
# T1 sequence (Q9BY41 whole entry): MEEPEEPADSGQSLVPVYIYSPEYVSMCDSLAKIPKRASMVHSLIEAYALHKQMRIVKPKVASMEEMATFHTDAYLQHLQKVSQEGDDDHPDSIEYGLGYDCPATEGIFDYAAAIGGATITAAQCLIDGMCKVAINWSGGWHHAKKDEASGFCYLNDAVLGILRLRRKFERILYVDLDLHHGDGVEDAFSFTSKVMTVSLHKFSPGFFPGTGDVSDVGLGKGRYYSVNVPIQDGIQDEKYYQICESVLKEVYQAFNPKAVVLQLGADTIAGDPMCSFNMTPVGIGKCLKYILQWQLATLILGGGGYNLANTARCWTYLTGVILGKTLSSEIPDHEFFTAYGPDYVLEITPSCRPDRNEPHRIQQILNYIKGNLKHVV
# [9] = molecular target: T2, Histone deacetylase 11 (Homo sapiens, UniProt Q96DB2); test: Inhibition of HDAC11 (unknown origin) using FAM-labeled peptide substrate by […] mobility shift assay
# T2 sequence (Q96DB2 whole entry): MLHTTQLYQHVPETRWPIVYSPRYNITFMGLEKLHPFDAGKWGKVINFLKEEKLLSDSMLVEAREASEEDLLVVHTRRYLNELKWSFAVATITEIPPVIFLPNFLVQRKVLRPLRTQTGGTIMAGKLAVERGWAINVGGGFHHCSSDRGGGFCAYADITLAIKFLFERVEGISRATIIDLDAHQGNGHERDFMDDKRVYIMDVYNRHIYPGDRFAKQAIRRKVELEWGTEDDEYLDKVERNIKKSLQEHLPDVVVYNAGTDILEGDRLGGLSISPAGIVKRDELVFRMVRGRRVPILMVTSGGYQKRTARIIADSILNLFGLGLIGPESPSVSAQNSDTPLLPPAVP
# [10] = molecular target: Protein cereblon/Protein deacetylase HDAC6 (Homo sapiens) (UniProt Q9UBN7+Q96SW2); test: PROTAC activity at CRBN/HDAC6 in human MM1.S cells assessed as induction of HDAC6 degradation at 0.1 to 1 uM by Western blot analysis; assay type: cell-based; details: dose 0.1-1 µM
# Protein cereblon/Protein deacetylase HDAC6 (Homo sapiens), sequence (Q96SW2 whole entry, looked up): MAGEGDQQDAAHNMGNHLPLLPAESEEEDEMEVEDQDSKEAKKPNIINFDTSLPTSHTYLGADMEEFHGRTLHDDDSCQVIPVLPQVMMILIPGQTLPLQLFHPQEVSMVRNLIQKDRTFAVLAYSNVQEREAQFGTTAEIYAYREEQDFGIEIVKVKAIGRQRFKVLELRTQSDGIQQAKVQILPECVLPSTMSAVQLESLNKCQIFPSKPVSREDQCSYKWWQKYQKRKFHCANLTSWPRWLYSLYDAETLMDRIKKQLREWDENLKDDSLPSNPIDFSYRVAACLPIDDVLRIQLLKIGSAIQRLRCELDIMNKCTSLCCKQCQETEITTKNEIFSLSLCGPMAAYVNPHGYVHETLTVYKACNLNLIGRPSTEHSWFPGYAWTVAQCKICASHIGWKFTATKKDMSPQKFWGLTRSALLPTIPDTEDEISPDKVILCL
# Protein cereblon/Protein deacetylase HDAC6 (Homo sapiens), sequence (Q9UBN7 whole entry, looked up): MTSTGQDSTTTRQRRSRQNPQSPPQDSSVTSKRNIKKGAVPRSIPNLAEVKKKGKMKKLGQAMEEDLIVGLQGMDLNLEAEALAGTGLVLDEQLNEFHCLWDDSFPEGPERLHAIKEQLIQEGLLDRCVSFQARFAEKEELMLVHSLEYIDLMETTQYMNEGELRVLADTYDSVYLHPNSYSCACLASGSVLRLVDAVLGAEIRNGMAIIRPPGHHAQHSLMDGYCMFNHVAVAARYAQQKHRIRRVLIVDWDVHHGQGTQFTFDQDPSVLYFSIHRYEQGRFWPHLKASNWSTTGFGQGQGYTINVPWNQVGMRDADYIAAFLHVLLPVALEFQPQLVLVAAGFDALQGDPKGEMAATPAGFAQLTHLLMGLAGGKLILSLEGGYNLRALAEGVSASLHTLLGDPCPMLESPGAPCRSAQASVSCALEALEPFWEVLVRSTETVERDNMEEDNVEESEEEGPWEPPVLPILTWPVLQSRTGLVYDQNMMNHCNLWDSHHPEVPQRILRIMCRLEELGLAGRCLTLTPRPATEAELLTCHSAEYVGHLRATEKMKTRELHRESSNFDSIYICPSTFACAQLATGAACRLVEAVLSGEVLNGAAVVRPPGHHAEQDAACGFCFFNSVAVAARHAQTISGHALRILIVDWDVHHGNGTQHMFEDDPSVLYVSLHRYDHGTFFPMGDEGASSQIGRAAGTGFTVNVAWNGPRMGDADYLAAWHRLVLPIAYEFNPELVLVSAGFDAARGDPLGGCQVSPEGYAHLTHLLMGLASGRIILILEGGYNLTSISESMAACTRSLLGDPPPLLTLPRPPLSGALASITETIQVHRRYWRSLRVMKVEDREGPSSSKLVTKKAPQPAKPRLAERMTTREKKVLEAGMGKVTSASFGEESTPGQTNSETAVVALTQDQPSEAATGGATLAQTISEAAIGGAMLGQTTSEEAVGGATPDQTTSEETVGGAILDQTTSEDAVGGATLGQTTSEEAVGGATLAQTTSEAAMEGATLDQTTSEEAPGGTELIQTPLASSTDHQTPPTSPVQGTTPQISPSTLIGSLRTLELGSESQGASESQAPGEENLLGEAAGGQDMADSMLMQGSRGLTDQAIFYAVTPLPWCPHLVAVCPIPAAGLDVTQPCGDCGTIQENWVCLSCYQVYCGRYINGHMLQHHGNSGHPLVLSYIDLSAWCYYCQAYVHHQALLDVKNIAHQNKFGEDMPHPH
# Histone deacetylase 1 (Homo sapiens), sequence (Q13547 whole entry): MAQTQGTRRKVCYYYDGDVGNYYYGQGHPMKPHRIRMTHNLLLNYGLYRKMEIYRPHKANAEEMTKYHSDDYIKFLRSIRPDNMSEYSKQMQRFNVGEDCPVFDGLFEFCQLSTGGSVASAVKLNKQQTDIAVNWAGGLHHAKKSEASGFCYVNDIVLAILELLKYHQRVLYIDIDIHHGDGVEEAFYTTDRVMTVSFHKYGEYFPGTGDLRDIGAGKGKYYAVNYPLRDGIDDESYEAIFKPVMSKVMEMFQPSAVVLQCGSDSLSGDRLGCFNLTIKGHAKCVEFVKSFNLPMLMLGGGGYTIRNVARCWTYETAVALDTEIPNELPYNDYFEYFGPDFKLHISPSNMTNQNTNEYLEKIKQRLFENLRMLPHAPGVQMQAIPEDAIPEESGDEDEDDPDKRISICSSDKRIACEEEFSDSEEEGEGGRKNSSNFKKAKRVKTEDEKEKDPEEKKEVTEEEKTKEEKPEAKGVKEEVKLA
inhibition [1],inhibition [2],half-life at 1 µM [3] [h],Structure (SMILES),other results
inactive,inactive,0.762,O=C1CCC(N2C(=O)c3cccc(NCCCCCCn4cc(CCCCN(Cc5ccc(C(=O)NO)cc5)Cc5cccnc5)nn4)c3C2=O)C(=O)N1 (stereo unspecified),–
inactive,inactive,1.33,O=C1CCC(N2C(=O)c3cccc(NCCOCCn4cc(CN(Cc5ccc(C(=O)NO)cc5)Cc5cccnc5)nn4)c3C2=O)C(=O)N1 (stereo unspecified),"Activity [4]: 60%; Activity [5]: inactive; Activity [6]: Active; Minimal Effect Observed Compared To To-317,Ricolinostat An D Citarinostat"
inactive,inactive,1.36,O=C1CCC(N2C(=O)c3cccc(NCCOCCN(Cc4ccc(C(=O)NO)cc4)Cc4cccnc4)c3C2=O)C(=O)N1 (stereo unspecified),–
inactive,inactive,1.45,O=C1CCC(N2C(=O)c3cccc(NCCCCN(Cc4ccc(C(=O)NO)cc4)Cc4cccnc4)c3C2=O)C(=O)N1 (stereo unspecified),–
inactive,inactive,1.29,O=C1CCC(N2C(=O)c3cccc(NCCN(Cc4ccc(C(=O)NO)cc4)Cc4cccnc4)c3C2=O)C(=O)N1 (stereo unspecified),–
inactive,inactive,1.06,O=C1CCC(N2C(=O)c3cccc(NCCOCCOCCN(Cc4ccc(C(=O)NO)cc4)Cc4cccnc4)c3C2=O)C(=O)N1 (stereo unspecified),–
–,–,–,O=C(NO)c1ccc(CN(Cc2cccnc2)S(=O)(=O)c2cc(F)c(F)c(F)c2F)cc1,Ratio IC50 [7]: 158; IC50 [8]: 31.6 nM; IC50 [9]: > 1000 nM
inactive,inactive,1.05,O=C1CCC(N2C(=O)c3cccc(NCCCn4cc(CCCCN(Cc5ccc(C(=O)NO)cc5)Cc5cccnc5)nn4)c3C2=O)C(=O)N1 (stereo unspecified),Activity [5]: inactive; Activity [6]: inactive
inactive,inactive,0.62,O=C1CCC(N2C(=O)c3cccc(NCCOCCOCCn4cc(CN(Cc5ccc(C(=O)NO)cc5)Cc5cccnc5)nn4)c3C2=O)C(=O)N1 (stereo unspecified),IC50 [9]: > 10000 nM
–,–,–,CN1C(=O)CCC(N2C(=O)c3cccc(NCCOCCOCCn4cc(CN(Cc5ccc(C(=O)NO)cc5)Cc5cccnc5)nn4)c3C2=O)C1=O (stereo unspecified),Activity [10]: inactive
inactive,inactive,0.704,O=C1CCC(N2C(=O)c3cccc(NCCCCCCn4cc(CN(Cc5ccc(C(=O)NO)cc5)Cc5cccnc5)nn4)c3C2=O)C(=O)N1 (stereo unspecified),–
inactive,inactive,1.01,O=C1CCC(N2C(=O)c3cccc(NCCOCCn4cc(CCCCN(Cc5ccc(C(=O)NO)cc5)Cc5cccnc5)nn4)c3C2=O)C(=O)N1 (stereo unspecified),–
inactive,inactive,0.738,O=C1CCC(N2C(=O)c3cccc(NCCCn4cc(CN(Cc5ccc(C(=O)NO)cc5)Cc5cccnc5)nn4)c3C2=O)C(=O)N1 (stereo unspecified),–
inactive,inactive,0.864,O=C1CCC(N2C(=O)c3cccc(NCCOCCOCCn4cc(CCCCN(Cc5ccc(C(=O)NO)cc5)Cc5cccnc5)nn4)c3C2=O)C(=O)N1 (stereo unspecified),–
